Measured values taken from patent US9771589B2, “Treating hepatitis virus infection by modulating microRNAs miR-130a, miR-130b, miR-204, or miR-1236” (priority 2013, dated 2017).

Legend:
NF-κB/p65 = NF-κB/p65 protein level, Western blot; assay type: cell-based, human; settings: stable miR-130a expressing HepG2 cells
glucokinase (GCK) = assay: GCK expression in stable miR-130a expressing cells; assay type: cell-based, human
Method: (§1) Anti-HBc (Dako), anti-PPARγ (Santa Cruz), anti-GAPDH, anti-PKLR, anti-G6Pase, anti-tubulin, anti-PGC1α (Origene), anti-PCK1 (Abnova), anti-GCK (Biovision), Secondary antibodies include mouse anti-rabbit-HRP, goat anti-mouse-HRP (GeneTex, Taiwan) and donkey anti-goat-HRP (Santa Cruz).
(§2) Briefly, 2 μg of total RNA was reverse transcribed into cDNA using random primers and High Capacity cDNA Reverse Transcription kit (Applied Biosystem) at 37° C. for 120 minutes. The cDNA product was then diluted 100 times for real-time PCR analysis using Power SYBR Green PCR master mix (Applied Biosystem), and the default condition in a 20 μl reaction volume by Applied Biosystems 7500 Real-Time PCR System. Data were analyzed by relative quantification methods (ΔΔCt methods) using 7500 software V2.0.1.
(§3) Approximately one million Huh7 and HepG2 cells were transiently transfected by 3 μg plasmid DNA (pSuper and pSuper-miR-130a) with Polyjet (SignaGen), followed by G418 selection for three weeks. The G418-resistant colonies were pooled together.

[1] = tested on: HBV 3′ UTR (nt 1521-2122); assay: 3′ UTR luciferase reporter assay with HBV nt 1521-2122; assay type: cell-based, hepatitis B virus (HBV ayw); settings: Huh7 cells, cotransfection with miRNA expression vector
From the text: (§4) Assay for 3′ UTR or enhancer/promoter was as described previously. Chen, H. L., et al., PloS one 7, e34116 (2012).

3′ UTR of PGC1α = assay: 3′UTR luciferase reporter assay, PGC1α; assay type: cell-based, human; settings: reporter cotransfection assay
From the text: as §4
(§5) An upstream fragment of the miR-130a precursor (−750 to −1 nt), containing putative binding sites for NF-κB/p65, Egr-1, and CREB, was amplified by PCR from human HepG2 genomic DNA. The PCR products were separated by agarose gel electrophoresis, and the isolated DNA fragments were then cloned into the restriction enzyme digested pGL3 Basic Vector (Promega, Madison, Wis.) containing a firefly luciferase reporter (New England Biolab, Ipswich, Mass.). Various promoter deletion plasmids, containing shorter fragments upstream from the miR-130a precursor, were derived from the full-length promoter plasmid by PCR amplification and cloning using various PCR primers (Table 1 above). All the promoter plasmids were confirmed by sequencing. HuH-7 cells were transfected with promoter deletion plasmids for 48 hrs and firefly luciferase activities were then measured and normalized to each cotransfected renilla luciferase level. The full-length 3′UTRs of PPARγ, PGC1α and SP1 were amplified from genomic DNA of HepG2 cells using their respective forward and reverse primers (Table 1), and cloned into a psiCHECK-2 luciferase vector (Promega, Madison, Wis.) (Shih, C. et al. Virology 179, 871-873 (1990)). […]

HepG2 cells = assay: Measurement of glucose production in cell culture; assay type: cell-based, human
Method: The glucose level of HBV transgenic mice was measured using a kit of DRI-CHEM SLIDE GLU-PIII (FUJIFILM, JAPAN). Ten microliters of mouse serum was deposited on a FUJI DRI-CHEM SLIDE GLU-PIII. Glucose oxidase (GOD) catalyzes the oxidization of sample glucose to generate hydrogen peroxide which then reacts with dye precursors and forms red dye. The optical reflection density was measured at 505 nm by the FUJI DRI-CHEM analyzer and converted into the glucose concentration […]. For the measurement of glucose concentration in cell culture, HBV producing cells (HepG2 and Q7 cells) were treated with PPARγ antagonist, GW9662 at indicated concentrations. Twenty-four hours before glucose measurement, the medium was replaced with 1 ml of glucose-free DMEM, supplemented with 2 mM sodium pyruvate. After 16 hrs incubation, 50 μl of medium was collected and the glucose concentration (mM) was measured using the glucose colorimetric assay (Biovision).

[2] = tested on: HBV core protein (HBc), surface antigen (HBsAg) and e antigen (HBeAg); assay: HBV protein expression (HBc Western blot; HBsAg, HBeAg ELISA); assay type: cell-based, hepatitis B virus (HBV ayw)
From the text: as §1
Chua, P. K., et al. Journal of virology 84, 2340-2351 (2010),

HBV = HBV DNA replication after cotransfection/treatment, Southern blot; assay type: cell-based, hepatitis B virus (HBV ayw)
From the text: The methods to construct the miRNA expression vectors are as detailed elsewhere. Chen, H. L. et al. PloS one 7, e34116 (2012). PCR products were sub-cloned from TA cloning vector (RBC) to pSuper (OligoEngine, Inc) by Hind III digestion. All plasmids were confirmed by sequencing. Approximately 8-400 fold higher level of microRNA expression was detected by transfection and stem loop RT-PCR analysis. […] The PPARγ and PGC1α expression vectors were from GeneCopoeia.
Human hepatoma Huh7 and HepG2 cells were maintained as described previously Chua, P. K., et al. Journal of virology 84, 2340-2351 (2010), Le Pogam, S., et al., Journal of virology 79, 1871-1887 (2005). In general, the phenotype of viral replication and the effect of microRNA are stronger in HepG2 than Huh7 cells. However, Huh7 cells are easier to passage and transfect. Therefore, we used these two cell lines interchangeably.
Rosiglitazone and GW9662 were from Sigma. HepG2 and Huh7 cells were seeded in 6-well tissue culture plates at 5×10, Quasdorff, M. et al. Journal of viral hepatitis 17, 527-536 (2010) cells/well. At 24 h post-transfection, Rosiglitazone or GW9662 in 0.1% DMSO was added to medium. Culture medium was changed ever two days before harvest.
HBV core particle-associated DNA, total cellular cytoplasmic RNA, and microRNA were analyzed by Northern blot as described previously. […]

HBV enhancer II = assay: HBV enhancer/promoter luciferase reporter assay; assay type: cell-based, hepatitis B virus; settings: Huh7 cells, pGL3/enhII reporter
From the text: as §4

[3] = tested on: SP1, PPAR α, CEBPb, and HNF4; assay: Expression of other hepatic transcription factors in miR-130a expressing cell lines; assay type: cell-based, human
Method: as §2, §3

[4] = tested on: HBV pregenomic RNA (pgRNA); assay: HBV RNA in transfected cells, Northern blot; assay type: cell-based, hepatitis B virus (HBV ayw); settings: HepG2, total cytoplasmic RNA of cotransfected culture
Method: HBV core particle-associated DNA, total cellular cytoplasmic RNA, and microRNA were analyzed by Northern blot as described previously. Chua, P. K., et al. Journal of virology 84, 2340-2351 (2010), Le Pogam, S., et al., Journal of virology 79, 1871-1887 (2005).

3′ UTR of PPARγ = assay: 3′UTR luciferase reporter assay, PPARγ; assay type: cell-based, human; settings: reporter cotransfection assay
From the text: as §4, §5

[5] = HBV-transfected Huh7 cells, increasing concentration of compound

**Q.** What does the source list for “miR-130a: human microRNA, CAGUGCAAUGUUAAAAGGGCAU (SEQ ID NO:1); given as pSuper expression vector or stable expression”?
**A.** NF-κB/p65 protein level (NF-κB/p65): increased significantly; GCK mRNA expression (glucokinase (GCK); miR-130a expressing hepatocytes, RT-qPCR): increased mRNA expression; GCK protein expression (glucokinase (GCK); stable miR-130a expressing HepG2 or Huh7 cells, Western blot): not reduced but increased; luciferase activity, wild type HBV 3′UTR reporter [1]: no appreciable effect; luciferase activity, reporter with 3′UTR of PGC1α (3′ UTR of PGC1α): significantly reduced the luciferase activity; glucose level (HepG2 cells; control versus miR-130a producing cells): No significant difference in glucose level; HBV protein expression (HBc, HBsAg, HBeAg) ([2]; HepG2 cells): reduce HBV protein expression; secretion of HBsAg and HBeAg ([2]; media of HepG2 cotransfected with HBV DNA, ELISA): reduces the secretion of HBsAg and HBeAg; HBV DNA replication (HBV; HepG2 cells cotransfected with HBV DNA, Southern blot): inhibits HBV DNA replication; luciferase activity driven by HBV enhancer-II (HBV enhancer II): reduced the luciferase activity driven by HBV enhancer-II; expression levels of most hepatic transcription factors examined [3]: remained unchanged; level of HBV pregenomic RNA (pgRNA) [4]: reduced the level of HBV pregenomic RNA; luciferase activity, reporter with 3′UTR of PPARγ (3′ UTR of PPARγ): significantly reduced the luciferase activity

**Q.** With `O=C(Nc1ccccc1)c1cc([N+](=O)[O-])ccc1Cl` [GW9662, reference compound] as the molecule, how does the glucose level (HepG2 cells; HepG2 cells treated with GW9662 (20 uM), irrespective of HBV-producing status) read?
**A.** The glucose level was “further increased”.

**Q.** And the “HBV protein expression (secreted HBsAg and HBeAg)” value [2, 5]?
**A.** The value was “significantly reduced”.

**Q.** What about the HBV replication (HBV; [5]) of the same molecule?
**A.** Its HBV replication is “significantly reduced”.
